What was measured:
[1] = test system: ECHS1 patient-derived fibroblasts; assay: Mitochondrial respiration assay (Seahorse); type: cell-based; conditions: 48 hours; for respiration: glucose or galactose conditions, 1, 5 or 10 μM
Excerpt: To assess the mechanism of action of hit compounds from the screens of previous Examples, which were based on rescue of viability after metabolic challenge, Seahorse assay was used to measure mitochondrial function in response to treatment at multiple concentrations. The Seahorse assay measures the following parameters: oxygen consumption; basal respiration rate; ATP-linked respiration; maximal respiration; reserve capacity; and ATP production rate. At baseline (no treatment), the ECHS1 patient-derived fibroblasts had lower respiration rates than the control fibroblasts in glucose culturing conditions (20% reduction) and in galactose culturing conditions (30% reduction).
ECHS1 patient-derived fibroblasts and age-matched and sex-matched control fibroblasts were initially grown in standard media (DMEM+2 mM glutamine+1 mM pyruvate) containing 10 mM glucose as the energy source. Cells were seeded into specialized 96-well plates at a density of 10,000 cells per well. One day after plating, cells were treated with the test compounds at the concentrations of 0, 1, 5, or 10 μM. Half of the samples were cultured in 10 mM glucose media in addition to the test compounds. The remaining half of the sample were cultured in 10 mM galactose media, which is a metabolic challenge, in addition to the test compound. Test compounds were incubated with cells for 48 hours. According to the standard Seahorse protocol, the following stressors were added to cells in sequential order: 2 μM oligomycin; 5 μM carbonyl cyanide-4-(trifluoromethoxy)phenylhydrazone (FCCP); 9 μM FCCP; 2 μM rotenone and 2 μM antimycin A. Data were normalized to cell number per well using a Hoechst stain for cell nuclei. Two rounds of experiments were conducted. The results were consistent between the two rounds.

ECHS1 knockdown larvae = assay: Fly larva experiment: buoyancy (float/sink); type: in vivo, Drosophila; conditions: multiple doses fed to larvae; untreated ECHS1 knockdown larvae 30% sank
Excerpt: To determine whether the Drosophila larvae experiment would be appropriate for further evaluation of compounds, the phenotype induced by ECHSI RNAi was identified. […] It was noted that when extracted from food and placed in 1X PBS, ECHS1 knockdown larvae were buoyant and sank only ˜30% of the time, while age-matched control larvae always sank at 100% frequency.
To test the ability of drug compounds to rescue these two ECHS1 knockdown phenotypes, the larvae were fed with fly food with various concentrations of 10 candidate drugs and first measured for larval size. During the 6 days prior to collection and phenotyping, larvae were raised in the drug food and exposed to drug continuously throughout development. […] Independently, losmapimod, talmapimod, ralimetinib, and neflamapimod were selected at multiple doses and fed to larvae and the population-wide float/sink proportions were assayed. In contrast to untreated ECHS1 knockdown larvae, where 30% sank, treatment with drug compounds nearly doubled the sinking proportions to 60%. Considering the effect of ECHSI on buoyancy in light of its enzymatic function catalyzing the second step of mitochondrial fatty acid beta-oxidation, decreased ECHS1 activity was expected to increase levels of non-metabolized lipid which would increase buoyancy. Thus, compounds were identified that suppressed both quantitative and nominal phenotypes, one of which appears to be directly relevant to the enzymatic function of ECHS1.

ECHS1 Fibroblast cells = assay: Galactose potency screen (cell viability, DAPI nuclei count); type: cell-based; conditions: galactose potency screen, FIG. 2
Experimental: Galactose Screen: Compound library plates were obtained from Prestwick/Selleck and SPECS (7,591 compounds total, 27 compounds/plate/concentration at 1 μM and 10 μM, 384-well plates). ECHS1 Fibroblast cells were harvested at 95% confluent with trypsin and suspended in Dulbecco's Modified Eagle Medium (DMEM)+10% Fetal Bovine Serum (FBS). The suspension was centrifuged at 200x g for 5 min. The suspension was discarded and the pellet was resuspended in the 5.5 mM galactose medium (DMEM+10% FBS+5.5 mM galactose) and seeded at 750 cells/well (50 μL) into the compound wells (1 μM and 10 μM). For the positive control experiment, the cells were suspended in 5.5 mM galactose medium+5.5 mM glucose+0.01% DMSO and seeded at 750 cells/well (50 μL) into the blank wells. For the negative control experiment, the cells were suspended in the 5.5 mM galactose medium+0.01% DMSO and seeded at 750 cells/well (50 μL) into the blank wells. The seeded plates were incubated at 37° C. for 96 hours, then 15 μL/well of 16% paraformaldehyde solution was added to the plates and allowed to sit for 15 min to fix the cells. The plates were then washed 3x with 50 μL/well of phosphate-buffered saline (PBS). The cells were stained with […] of a solution of 4,6-diamidino-2-phenylindole dilactate (DAPI, Invitrogen) and left at room temperature for 1 hr. The plates were then washed 3x with 50 μL/well of PBS prior to imaging. Agilent BioTek EL406 Microplate Washer Dispenser was used for the cell fixation and staining protocol. The plates were imaged using GE InCell2200 Cell Analyzer using PerkinElmer Columbus software quantification protocol. The data was analyzed using Genedata, Vortex, and Abase software. A Z-score value of >2 was used for the Prestwick/Selleck compound library and >3 for the SPECS library (based on the negative control population) to determine hit selection.
ECHS1 Fibroblast cells were harvested at 70-80% confluent with trypsin and suspended in DMEM+10% FBS. The suspension was centrifuged at 200x g for 5 min. The suspension was discarded and the pellet was resuspended in the either the 5.5 mM galactose medium (DMEM+10% FBS+5.5 mM of galactose) or the 10 mM propionate medium (DMEM+10% FBS+10 mM sodium propionate). The cells were seeded at 750 cells/well (50 μL) into a 384-well plate containing the test compounds (3-fold serial dilution across 10 plates, starting at 10 uM). For the positive control experiment, the cells were suspended in either the 5.5 mM galactose medium or 10 mM propionate medium+5.5 mM glucose+0.01% DMSO and seeded at 750 cells/well (50 μL) into the blank wells. For the negative control experiment, the cells were suspended in the 5.5 mM galactose or 10 mM propionate medium +0.01% DMSO and seeded at 750 cells/well (50 μL) into the blank wells. The seeded plates were incubated at 37° C. for 96 hours, then 15 μL/well of 16% paraformaldehyde solution was added to the plates and allowed to sit for 15 min to fix the cells. The plates were then washed 3x with 50 μL/well of PBS. The cells were stained with 25 μL/well of a solution of DAPI and left at room temperature for 1 hr. The plates were then washed 3x with 50 μL/well of PBS prior to imaging. Agilent BioTek EL406 Microplate Washer Dispenser was used for the cell fixation and staining protocol. The plates were imaged using GE InCell2200 Cell Analyzer using PerkinElmer Columbus software quantification protocol. The data was analyzed using Genedata, Vortex, and Abase software. A Z-score value of >2 was used for both the Prestwick/Selleck and SPECS library (based on the negative control population) to determine hit selection.

Structure (SMILES) | respiration [1] | sinking proportions (ECHS1 knockdown larvae) | concentration-dependent curves (ECHS1 Fibroblast cells) | ATP production rates [1] | increase in maximal respiration ([1]; glucose-treated cells, 10 μM) | maximal respiration ([1]; glucose-treated cells)
Cc1c(F)cc(C(=O)NC2CC2)cc1-c1ccc(C(=O)NCC(C)(C)C)cn1 [losmapimod, 6-[5-(cyclopropylcarbamoyl)-3-fluoro-2-methylphenyl]-N-(2,2-dimethylpropyl)pyridine-3-carboxamide] | did not result in major changes | 60% |  |  |  | 
O=c1ncn2nc(Sc3ccc(F)cc3F)ccc2c1-c1c(Cl)cccc1Cl [neflamapimod, 5-(2,6-dichlorophenyl)-2-(2,4-difluorophenyl)sulfanylpyrimido[1,6-b]pyridazin-6-one] |  | 60% | non-linear response |  |  | 
CC(C)(C)Cn1c(N)nc2ccc(-c3[nH]c(C(C)(C)C)nc3-c3ccc(F)cc3)nc21 [ralimetinib, 5-[2-tert-butyl-4-(4-fluorophenyl)-1H-imidazol-5-yl]-3-(2,2-dimethylpropyl)imidazo[4,5-b]pyridin-2-amine] | did not result in major changes | 60% | non-linear response |  |  | 
C[C@@H]1CN(Cc2ccc(F)cc2)[C@@H](C)CN1C(=O)c1cc2c(C(=O)C(=O)N(C)C)cn(C)c2cc1Cl [talmapimod, 2-[6-chloro-5-[(2R,5S)-4-[(4-fluorophenyl)methyl]-2,5-dimethylpiperazine-1-carbonyl]-1-methylindol-3-yl]-N,N-dimethyl-2-oxoacetamide] |  | 60% | non-linear response | no change | 11% | dose-dependent increase

Reference: patent US20240316055A1, “METHODS FOR TREATING LEIGH SYNDROME” (DBCC Research, LLC, priority 2023, published 2024)
